Drawing on ChEMBL document CHEMBL1154094, “Carbonic anhydrase inhibitors. Aromatic/heterocyclic sulfonamides incorporating phenacetyl, pyridylacetyl and thienylacetyl tails act as potent inhibitors of human mitochondrial isoforms VA and VB” (Bioorg Med Chem, 2009), this text covers Ki for 4 molecules.

For assay [1], the target named is Carbonic anhydrase 5A, mitochondrial (Homo sapiens, UniProt P35218).
In assay [2] the target is Carbonic anhydrase 5B, mitochondrial (Homo sapiens, UniProt Q9Y2D0).
Carbonic anhydrase 5B, mitochondrial, sequence (Q9Y2D0 whole entry): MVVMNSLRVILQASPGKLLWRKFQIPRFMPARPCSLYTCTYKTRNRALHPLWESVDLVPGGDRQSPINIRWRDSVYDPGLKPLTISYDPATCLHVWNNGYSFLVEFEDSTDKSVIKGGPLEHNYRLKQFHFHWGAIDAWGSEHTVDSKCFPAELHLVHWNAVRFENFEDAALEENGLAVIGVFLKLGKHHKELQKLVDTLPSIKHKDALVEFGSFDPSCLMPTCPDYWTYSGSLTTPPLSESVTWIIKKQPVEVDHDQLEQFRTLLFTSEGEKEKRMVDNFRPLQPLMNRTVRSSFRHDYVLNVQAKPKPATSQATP

Carbonic anhydrase 5A, mitochondrial, sequence (P35218 whole entry): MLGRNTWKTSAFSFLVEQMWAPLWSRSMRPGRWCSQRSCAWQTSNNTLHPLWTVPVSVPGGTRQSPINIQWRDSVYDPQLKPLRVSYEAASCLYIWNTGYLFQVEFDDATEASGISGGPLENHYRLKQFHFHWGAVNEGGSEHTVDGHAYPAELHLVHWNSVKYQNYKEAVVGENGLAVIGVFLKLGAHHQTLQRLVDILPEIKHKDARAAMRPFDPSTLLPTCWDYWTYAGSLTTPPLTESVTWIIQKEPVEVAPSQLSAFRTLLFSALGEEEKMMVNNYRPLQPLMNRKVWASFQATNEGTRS

As usually defined, the Ki is a measure of affinity in units of concentration, obtained from inhibition or displacement. `NS(=O)(=O)c1ccc(NC(=O)Cc2cccs2)cc1`: the inhibition constant (Ki) in assay [1] turned out to be 7.2 nM; in assay [2] it was 7 nM.
In the case of `NS(=O)(=O)c1ccc(CNC(=O)Cc2cccs2)cc1`, the inhibition constant (Ki) in assay [1] was found to be 9.1 nM; in assay [2] it was 7.2 nM.
With `NS(=O)(=O)c1ccc(NC(=O)Cc2ccccc2)cc1`, the Ki in assay [1] was found to be 6.7 nM; in assay [2], 7.9 nM.
On the same counts, the results for `NS(=O)(=O)c1ccc(CCNC(=O)Cc2cccs2)cc1` are 10.2 nM and 8 nM.
